From EP0570196B1, “Oxime derivatives” (ZENECA LIMITED, priority 1992, dated 1993) come the findings set out here.

Test [1] relates to 5-LO. Description: Test c): in vivo zymosan-induced LTB₄ liberation in a subcutaneous air pouch of male rats. Particulars: rat air pouch, 3 hours.
Test [2] deals with T1, 5-LO (Homo sapiens, UniProt P09917).
T1 construct: incubating a test compound with heparinised human blood, prior to challenge with the calcium ionophore A23187; endogenous in cells; host or cells: heparinised human whole blood (blood cells)
T1 sequence (P09917 1-674): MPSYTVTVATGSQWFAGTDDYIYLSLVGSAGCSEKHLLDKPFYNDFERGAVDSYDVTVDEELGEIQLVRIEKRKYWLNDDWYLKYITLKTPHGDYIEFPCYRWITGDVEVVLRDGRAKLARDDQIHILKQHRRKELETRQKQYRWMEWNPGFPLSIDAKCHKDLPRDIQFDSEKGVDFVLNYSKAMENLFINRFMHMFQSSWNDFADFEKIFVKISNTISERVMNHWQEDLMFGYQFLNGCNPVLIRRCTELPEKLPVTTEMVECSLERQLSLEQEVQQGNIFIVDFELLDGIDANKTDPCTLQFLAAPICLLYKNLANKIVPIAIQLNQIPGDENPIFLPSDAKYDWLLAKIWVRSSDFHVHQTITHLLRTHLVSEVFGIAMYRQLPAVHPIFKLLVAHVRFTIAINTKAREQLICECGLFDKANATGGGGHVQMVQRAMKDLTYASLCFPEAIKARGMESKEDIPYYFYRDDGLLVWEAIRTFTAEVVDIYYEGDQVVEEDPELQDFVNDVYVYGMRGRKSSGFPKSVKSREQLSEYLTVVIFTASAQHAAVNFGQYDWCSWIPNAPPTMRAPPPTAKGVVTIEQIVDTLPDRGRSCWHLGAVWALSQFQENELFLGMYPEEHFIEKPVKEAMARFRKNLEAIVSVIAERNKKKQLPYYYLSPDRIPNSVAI
Description: Test a): in vitro heparinised human blood challenged with calcium ionophore A23187, radioimmunoassay of LTB₄. It counts as cell-based. Particulars: heparinised human blood, A23187 challenge; read-out: IC₅₀ against LTB₄ in test a). From the text: As stated previously, the compounds of the formula I are inhibitors of the enzyme 5-LO. […] J. Pharmacol., 1985, 84, 34P) which involve the use of a protein-LTB₄ conjugate produced using the procedure of Young et alia (Prostaglandins, 1983, 26(4), 605-613). The effects of a test compound on the enzyme cyclooxygenase (which is involved in the alternative metabolic pathway for arachidonic acid and gives rise to prostaglandins, thromboxanes and related metabolites) may be measured at the same time using the specific radioimmunoassay for thromboxane B₂(TxB₂) described by Carey and Forder (see above). This test provides an indication of the effects of a test compound against 5-LO and also cyclooxygenase in the presence of blood cells and proteins. It permits the selectivity of the inhibitory effect on 5-LO or cyclooxygenase to be assessed. • b) An ex vivo assay system, which is a variation of test a) above, involving administration to a group of rats of a test compound (usually orally as the suspension produced when a solution of the test compound in dimethylsulphoxide is added to carboxymethylcellulose), blood collection, heparinisation, challenge with A23187 and radioimmunoassay of LTB₄ and TxB₂. […]

`COC1(c2cc(F)cc(Sc3ccc(CON=C(C)C)cc3)c2)CCOCC1` [Example 1, acetone 0-{4-[5-fluoro-3-(4-methoxytetrahydropyran-4-yl)phenylthio]benzyl}oxime]: in the test on 5-LO [1], the “oral ED₅₀ versus LTB₄ in test c)” value is “approximately 1 mg/kg”. At 5-LO [2], the IC50 stood at 150 nM.
The corresponding values for `COC1(c2cc(F)cc(Sc3ccc(C(C)ON=C(C)C)cc3)c2)CCOCC1` (stereo not drawn) [Example 2, acetone 0-{4-[5-fluoro-3-(4-methoxytetrahydropyran-4-yl)phenylthio)-α-methylbenzyl}oxime] are “approximately 1.5 mg/kg” and 90 nM.
